These results are taken from ChEMBL document CHEMBL5346971, “Discovery of the First Irreversible HDAC6 Isoform Selective Inhibitor with Potent Anti-Multiple Myeloma Activity” (J Med Chem, 2023).

Bounds are passed on as bounds.

The nature of data set [1]: Half-life in human liver microsomes in presence of NADPH by LC-MS/MS analysis. Format: ADME, Microsome. (In general: Liver microsomes are a subcellular fraction often used to study metabolism.)
The target of data set [2] is Histone deacetylase 5 (Homo sapiens, UniProt Q9UQL6). In words: Inhibition of C-terminal His-tagged human recombinant HDAC5 catalytic domain (656 to 1122 residues) expressed in baculovirus-infected Sf9 cells using Boc-Lys(trifluoroacety1)-AMC as substrate preincubated with enzyme for 1 hr followed by substrate addition and measured after 30 mins by fluorescence based analysis.

Data set [3] concerns the target T1, Histone deacetylase 11 (Homo sapiens, UniProt Q96DB2).
T1 sequence (Q96DB2 whole entry): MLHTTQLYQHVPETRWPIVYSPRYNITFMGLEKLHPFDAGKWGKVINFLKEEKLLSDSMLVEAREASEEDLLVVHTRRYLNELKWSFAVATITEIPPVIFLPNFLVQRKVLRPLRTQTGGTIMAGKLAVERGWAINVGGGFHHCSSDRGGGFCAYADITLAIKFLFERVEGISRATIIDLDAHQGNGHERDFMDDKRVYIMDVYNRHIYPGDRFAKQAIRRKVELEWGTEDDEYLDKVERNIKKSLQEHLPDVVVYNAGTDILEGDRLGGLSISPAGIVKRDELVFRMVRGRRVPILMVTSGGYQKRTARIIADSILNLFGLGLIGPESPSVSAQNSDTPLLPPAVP
Description: Inhibition of human full length recombinant HDAC11 (1 to 347 residues) expressed in Sf9 cells using acetyl-ETDKmyr-AMC as substrate preincubated with enzyme for 1 hr followed by substrate addition and measured after 30 mins by fluorescence based analysis.

Data set [4] has as its target T2, Histone deacetylase 7 (Homo sapiens, UniProt Q8WUI4).
T2 sequence (Q8WUI4 whole entry): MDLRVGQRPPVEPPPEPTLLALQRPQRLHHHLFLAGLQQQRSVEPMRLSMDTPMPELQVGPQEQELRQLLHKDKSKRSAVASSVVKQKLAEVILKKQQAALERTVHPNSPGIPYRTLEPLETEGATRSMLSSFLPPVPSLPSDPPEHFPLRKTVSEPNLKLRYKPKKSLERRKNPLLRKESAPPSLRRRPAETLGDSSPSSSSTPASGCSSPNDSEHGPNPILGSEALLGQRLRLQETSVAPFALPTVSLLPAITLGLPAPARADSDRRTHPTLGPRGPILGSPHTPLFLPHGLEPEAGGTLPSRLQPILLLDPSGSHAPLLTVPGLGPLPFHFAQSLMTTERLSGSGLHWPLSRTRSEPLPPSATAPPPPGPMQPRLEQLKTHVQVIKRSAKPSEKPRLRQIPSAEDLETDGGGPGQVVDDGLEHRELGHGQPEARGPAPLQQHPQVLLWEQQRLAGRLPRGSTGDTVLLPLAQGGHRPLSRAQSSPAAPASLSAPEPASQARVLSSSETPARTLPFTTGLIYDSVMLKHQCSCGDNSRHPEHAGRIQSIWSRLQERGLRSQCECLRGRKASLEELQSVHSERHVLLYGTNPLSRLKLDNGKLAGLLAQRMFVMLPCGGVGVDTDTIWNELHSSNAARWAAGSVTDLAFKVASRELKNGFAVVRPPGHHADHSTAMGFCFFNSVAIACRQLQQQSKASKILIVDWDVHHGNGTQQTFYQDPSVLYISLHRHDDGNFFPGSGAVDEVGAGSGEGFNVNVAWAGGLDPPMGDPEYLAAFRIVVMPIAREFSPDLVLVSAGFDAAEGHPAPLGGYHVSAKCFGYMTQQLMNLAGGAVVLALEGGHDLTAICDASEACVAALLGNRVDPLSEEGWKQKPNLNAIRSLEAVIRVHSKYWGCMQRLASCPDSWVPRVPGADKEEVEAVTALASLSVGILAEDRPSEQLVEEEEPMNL
In words: Inhibition of N-terminal GST-tagged human HDAC7 (518 to end residues) expressed in baculovirus-infected Sf9 cells using Boc-Lys(trifluoroacety1)-AMC as substrate preincubated with enzyme for 1 hr followed by substrate addition and measured after 30 mins by fluorescence based analysis.

Data set [5] deals with Class 1 histone deacetylase (Homo sapiens) (UniProt Q13547+O15379+Q92769+Q9BY41). Description: Irreversible inhibition of class 1 HDAC in human A549 cells assessed as acetyl histone H3 level at 0.4 uM incubated for 5 hrs followed by drug wash-out for 1 hr by western blot analysis relative to control. Format: cell-based.
The target of data set [6] is Histone deacetylase 4 (Homo sapiens, UniProt P56524). Description: Inhibition of N-terminal GST-tagged/C-terminal His-tagged human HDAC4 (627 to 1084 residues) expressed in baculovirus-infected Sf9 cells using Boc-Lys(trifluoroacety1)-AMC as substrate preincubated with enzyme for 1 hr followed by substrate addition and measured after 30 mins by fluorescence based analysis.

The subject of data set [7] is RPMI-8226. In words: Induction of apoptosis in human RPMI-8226 cells incubated for 24 hrs by AnnexinV-FITC/PI staining based flow cytometry. The settings on record: dose 0.1-0.5 µM. It counts as functional, cell-based.
Data set [8] addresses T3, Histone deacetylase 8 (Homo sapiens, UniProt Q9BY41).
T3 sequence (Q9BY41 whole entry): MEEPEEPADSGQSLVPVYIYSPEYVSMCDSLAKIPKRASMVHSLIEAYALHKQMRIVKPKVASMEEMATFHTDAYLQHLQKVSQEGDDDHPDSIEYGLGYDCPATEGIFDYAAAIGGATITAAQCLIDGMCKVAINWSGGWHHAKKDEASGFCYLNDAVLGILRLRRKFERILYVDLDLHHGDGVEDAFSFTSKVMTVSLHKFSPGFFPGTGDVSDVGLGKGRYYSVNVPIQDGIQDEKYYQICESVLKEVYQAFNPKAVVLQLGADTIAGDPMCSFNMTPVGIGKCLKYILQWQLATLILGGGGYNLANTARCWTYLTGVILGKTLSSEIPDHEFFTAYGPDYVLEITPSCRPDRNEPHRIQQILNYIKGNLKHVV
In words: Inhibition of C-terminal His-tagged human full length recombinant HDAC8 (1 to 377 residues) expressed in Sf9 cells using Boc-Lys(trifluoroacety1)-AMC as substrate preincubated with enzyme for 1 hr followed by substrate addition and measured after 30 mins by fluorescence based analysis.

In data set [9] the target is Histone deacetylase 3/Nuclear receptor corepressor 2 (HDAC3/NCoR2) (Homo sapiens, UniProt O15379). Description: Inhibition of C-terminal His-tagged human HDAC3 (1 to 428 residues)/N-terminal GST-tagged human NCOR2 (395 to 489 residues) expressed in baculovirus-infected Sf9 cells using Boc-Lys(acetyI)-AMC as substrate preincubated with enzyme for 1 hr followed by substrate addition and measured after 30 mins by fluorescence based analysis.

The subject of data set [10] is RPMI-8226. In words: Antiproliferative activity against human RPMI-8226 cells assessed as inhibition of cell proliferation incubated for 48 hrs by CCK8 assay. Format: functional, cell-based. To be noted: RPMI-8226, 48 h. (Tetrazolium assays rely on reduction of a dye to a coloured formazan, in cell work by metabolically active cells.)
Data set [11] relates to U-266. Description: Antiproliferative activity against human U-266 cells assessed as inhibition of cell proliferation incubated for 48 hrs by CCK8 assay. To be noted: U-266, 48 h. Format: functional, cell-based.
In data set [12] the target is Histone deacetylase 9 (Homo sapiens, UniProt Q9UKV0). Description: Inhibition of C-terminal His-tagged human recombinant HDAC9 (604 to 1066 residues) expressed in baclovirus-infected Sf9 cells using Boc-Lys(trifluoroacety1)-AMC as substrate preincubated with enzyme for 1 hr followed by substrate addition and measured after 30 mins by fluorescence based analysis.
Chain of Histone deacetylase 9 (Q9UKV0 whole entry, the tested form may be a part): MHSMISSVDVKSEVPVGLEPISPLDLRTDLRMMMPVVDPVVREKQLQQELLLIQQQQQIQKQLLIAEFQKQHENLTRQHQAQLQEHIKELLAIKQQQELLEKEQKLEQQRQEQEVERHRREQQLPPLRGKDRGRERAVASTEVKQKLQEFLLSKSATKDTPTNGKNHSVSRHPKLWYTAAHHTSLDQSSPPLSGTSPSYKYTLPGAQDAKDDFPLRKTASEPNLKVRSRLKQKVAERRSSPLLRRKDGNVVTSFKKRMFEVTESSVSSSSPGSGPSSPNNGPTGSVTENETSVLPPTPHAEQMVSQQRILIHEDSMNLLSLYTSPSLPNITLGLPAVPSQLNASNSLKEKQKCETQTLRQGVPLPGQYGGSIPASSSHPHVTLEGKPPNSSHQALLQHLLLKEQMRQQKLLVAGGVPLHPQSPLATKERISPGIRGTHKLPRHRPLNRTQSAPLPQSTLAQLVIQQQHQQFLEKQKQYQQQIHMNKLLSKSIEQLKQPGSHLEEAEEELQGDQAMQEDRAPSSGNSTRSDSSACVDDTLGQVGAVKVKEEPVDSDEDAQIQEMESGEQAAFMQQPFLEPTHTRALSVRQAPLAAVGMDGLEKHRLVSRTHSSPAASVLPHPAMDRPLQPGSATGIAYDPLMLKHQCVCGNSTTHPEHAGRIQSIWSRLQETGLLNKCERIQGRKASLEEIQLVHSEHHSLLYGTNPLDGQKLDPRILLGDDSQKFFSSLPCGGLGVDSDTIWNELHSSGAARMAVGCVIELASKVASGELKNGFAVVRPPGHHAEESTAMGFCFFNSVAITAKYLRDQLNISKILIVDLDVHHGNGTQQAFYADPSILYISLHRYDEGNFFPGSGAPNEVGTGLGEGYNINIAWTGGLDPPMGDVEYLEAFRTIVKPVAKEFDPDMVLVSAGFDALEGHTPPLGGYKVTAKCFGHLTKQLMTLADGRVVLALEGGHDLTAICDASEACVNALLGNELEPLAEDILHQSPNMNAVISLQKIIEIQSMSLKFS

Chain of Histone deacetylase 5 (Q9UQL6 whole entry, the tested form may be a part): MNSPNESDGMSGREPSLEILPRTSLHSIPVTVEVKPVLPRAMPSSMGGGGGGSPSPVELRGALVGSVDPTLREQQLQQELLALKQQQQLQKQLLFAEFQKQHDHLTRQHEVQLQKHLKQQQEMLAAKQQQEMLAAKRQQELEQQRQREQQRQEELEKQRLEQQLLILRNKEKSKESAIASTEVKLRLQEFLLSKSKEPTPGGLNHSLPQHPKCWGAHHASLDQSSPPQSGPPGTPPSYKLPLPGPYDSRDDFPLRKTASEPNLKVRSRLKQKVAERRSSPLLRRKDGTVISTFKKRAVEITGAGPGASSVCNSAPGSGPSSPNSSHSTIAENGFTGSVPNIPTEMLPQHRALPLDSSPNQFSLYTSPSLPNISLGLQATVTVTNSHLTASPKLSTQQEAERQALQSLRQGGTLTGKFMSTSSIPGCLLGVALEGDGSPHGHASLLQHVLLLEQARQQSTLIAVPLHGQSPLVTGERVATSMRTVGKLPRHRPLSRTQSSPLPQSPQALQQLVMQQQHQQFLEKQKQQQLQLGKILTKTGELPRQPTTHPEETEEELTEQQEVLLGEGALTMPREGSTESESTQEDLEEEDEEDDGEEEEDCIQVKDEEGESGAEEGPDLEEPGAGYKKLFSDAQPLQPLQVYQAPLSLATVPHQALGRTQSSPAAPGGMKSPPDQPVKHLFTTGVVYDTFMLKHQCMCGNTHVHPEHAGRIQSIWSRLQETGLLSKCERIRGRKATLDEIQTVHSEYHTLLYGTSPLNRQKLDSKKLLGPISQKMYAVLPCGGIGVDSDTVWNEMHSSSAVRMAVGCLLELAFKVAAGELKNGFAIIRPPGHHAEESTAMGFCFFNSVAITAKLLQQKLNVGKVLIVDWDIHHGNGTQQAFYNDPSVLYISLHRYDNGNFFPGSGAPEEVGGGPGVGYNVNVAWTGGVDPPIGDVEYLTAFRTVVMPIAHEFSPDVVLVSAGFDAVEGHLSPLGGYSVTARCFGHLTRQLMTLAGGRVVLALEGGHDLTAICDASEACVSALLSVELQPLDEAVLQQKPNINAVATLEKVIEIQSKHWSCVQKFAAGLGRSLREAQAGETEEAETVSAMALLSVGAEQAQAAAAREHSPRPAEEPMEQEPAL
Chain of Histone deacetylase 4 (P56524 whole entry, the tested form may be a part): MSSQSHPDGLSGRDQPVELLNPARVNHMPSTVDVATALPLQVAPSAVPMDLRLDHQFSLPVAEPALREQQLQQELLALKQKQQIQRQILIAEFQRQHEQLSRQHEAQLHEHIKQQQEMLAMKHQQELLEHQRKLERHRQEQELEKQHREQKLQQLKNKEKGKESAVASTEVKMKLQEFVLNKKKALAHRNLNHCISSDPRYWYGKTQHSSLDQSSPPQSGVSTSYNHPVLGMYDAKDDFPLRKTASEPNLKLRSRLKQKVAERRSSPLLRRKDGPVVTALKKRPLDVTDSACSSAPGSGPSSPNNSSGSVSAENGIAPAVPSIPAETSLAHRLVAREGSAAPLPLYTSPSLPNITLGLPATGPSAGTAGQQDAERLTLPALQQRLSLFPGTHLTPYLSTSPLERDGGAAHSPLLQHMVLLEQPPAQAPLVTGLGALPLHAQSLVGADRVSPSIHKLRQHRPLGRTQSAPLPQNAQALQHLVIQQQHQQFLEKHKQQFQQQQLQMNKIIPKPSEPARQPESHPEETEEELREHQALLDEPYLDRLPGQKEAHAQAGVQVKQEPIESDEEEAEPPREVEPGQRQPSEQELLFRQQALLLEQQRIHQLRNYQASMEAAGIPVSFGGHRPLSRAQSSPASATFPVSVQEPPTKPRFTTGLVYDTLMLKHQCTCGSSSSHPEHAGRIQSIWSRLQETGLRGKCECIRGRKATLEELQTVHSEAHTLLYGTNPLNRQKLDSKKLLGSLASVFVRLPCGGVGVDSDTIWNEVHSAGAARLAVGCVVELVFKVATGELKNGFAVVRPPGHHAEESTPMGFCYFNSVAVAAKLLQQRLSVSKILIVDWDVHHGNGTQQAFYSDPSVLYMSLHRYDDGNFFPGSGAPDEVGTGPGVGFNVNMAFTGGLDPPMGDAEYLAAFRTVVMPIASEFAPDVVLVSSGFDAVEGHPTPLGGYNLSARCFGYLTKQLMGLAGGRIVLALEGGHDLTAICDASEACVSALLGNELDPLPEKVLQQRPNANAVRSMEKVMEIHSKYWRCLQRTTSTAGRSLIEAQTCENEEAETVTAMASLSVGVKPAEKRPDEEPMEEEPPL
Chain of Class 1 histone deacetylase (Homo sapiens) (O15379 whole entry, looked up, one chain of several, the tested form may be a part): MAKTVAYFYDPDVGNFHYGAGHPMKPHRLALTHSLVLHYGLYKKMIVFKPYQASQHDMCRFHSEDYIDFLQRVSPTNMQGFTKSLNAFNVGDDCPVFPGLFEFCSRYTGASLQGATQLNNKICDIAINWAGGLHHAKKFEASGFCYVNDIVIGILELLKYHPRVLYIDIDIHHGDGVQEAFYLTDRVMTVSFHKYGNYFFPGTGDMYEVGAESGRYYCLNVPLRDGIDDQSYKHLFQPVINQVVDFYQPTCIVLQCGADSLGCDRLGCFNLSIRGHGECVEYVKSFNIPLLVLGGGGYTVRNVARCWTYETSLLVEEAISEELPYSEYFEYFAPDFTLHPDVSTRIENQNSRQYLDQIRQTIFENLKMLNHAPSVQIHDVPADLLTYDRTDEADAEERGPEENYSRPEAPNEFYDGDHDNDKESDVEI
Chain of Class 1 histone deacetylase (Homo sapiens) (Q13547 whole entry, looked up, one chain of several, the tested form may be a part): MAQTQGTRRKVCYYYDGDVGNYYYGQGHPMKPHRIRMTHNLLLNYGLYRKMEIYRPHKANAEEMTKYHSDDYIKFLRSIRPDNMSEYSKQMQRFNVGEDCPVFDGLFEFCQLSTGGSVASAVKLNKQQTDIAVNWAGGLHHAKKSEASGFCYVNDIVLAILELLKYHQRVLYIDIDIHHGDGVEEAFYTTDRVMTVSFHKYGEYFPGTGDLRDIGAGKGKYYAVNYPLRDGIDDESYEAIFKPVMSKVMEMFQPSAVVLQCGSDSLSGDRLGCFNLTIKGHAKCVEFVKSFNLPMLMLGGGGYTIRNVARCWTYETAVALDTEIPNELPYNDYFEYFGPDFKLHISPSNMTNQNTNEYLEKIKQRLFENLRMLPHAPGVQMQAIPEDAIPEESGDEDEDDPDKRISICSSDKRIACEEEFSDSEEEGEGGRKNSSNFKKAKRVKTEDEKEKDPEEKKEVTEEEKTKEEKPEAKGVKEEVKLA
Chain of Class 1 histone deacetylase (Homo sapiens) (Q92769 whole entry, looked up, one chain of several, the tested form may be a part): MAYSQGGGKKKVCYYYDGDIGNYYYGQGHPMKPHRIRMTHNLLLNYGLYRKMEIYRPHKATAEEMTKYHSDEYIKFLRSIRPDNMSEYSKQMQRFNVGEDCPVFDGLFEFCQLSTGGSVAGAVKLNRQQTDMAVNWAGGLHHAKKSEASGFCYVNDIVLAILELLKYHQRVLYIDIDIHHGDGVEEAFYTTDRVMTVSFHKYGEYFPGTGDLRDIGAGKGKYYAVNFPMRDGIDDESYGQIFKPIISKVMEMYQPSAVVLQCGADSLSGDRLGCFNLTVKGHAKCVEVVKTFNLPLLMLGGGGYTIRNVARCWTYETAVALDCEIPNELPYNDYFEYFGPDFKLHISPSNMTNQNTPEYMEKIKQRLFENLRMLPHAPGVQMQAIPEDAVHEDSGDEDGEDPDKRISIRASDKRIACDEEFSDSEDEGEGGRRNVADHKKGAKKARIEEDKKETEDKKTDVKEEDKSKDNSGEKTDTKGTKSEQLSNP

As for `O=C(NO)c1ccc(COc2no[n+]([O-])c2S(=O)(=O)c2ccccc2)cc1`, the half-life (as a rule, how long it takes for the measured level to halve) in [1] is 5.4 min. Further, the IC50 – broadly, the concentration needed to halve the response being measured – in data set [2] is more than 40 µM; in data set [3], 5.3 µM; in data set [4], more than 40 µM; in data set [6], more than 40 µM; in data set [8], 2.1 µM; in [9], 8.2 µM. For the same compound, the results for the IC50 in data set [10], in data set [11] and in data set [12] were 0.17 µM, 0.7 µM and more than 40 µM, respectively. Also, the fold change (FC) in data set [5] turned out to be 1.2. Besides, in data set [7], the Activity result was “Dose-Dependent Effect”.
